Assay [1] addresses T1, SOS1 catalytic domain (residues 564-1049) (Homo sapiens, UniProt Q07889).
T1 sequence (Q07889 564-1049): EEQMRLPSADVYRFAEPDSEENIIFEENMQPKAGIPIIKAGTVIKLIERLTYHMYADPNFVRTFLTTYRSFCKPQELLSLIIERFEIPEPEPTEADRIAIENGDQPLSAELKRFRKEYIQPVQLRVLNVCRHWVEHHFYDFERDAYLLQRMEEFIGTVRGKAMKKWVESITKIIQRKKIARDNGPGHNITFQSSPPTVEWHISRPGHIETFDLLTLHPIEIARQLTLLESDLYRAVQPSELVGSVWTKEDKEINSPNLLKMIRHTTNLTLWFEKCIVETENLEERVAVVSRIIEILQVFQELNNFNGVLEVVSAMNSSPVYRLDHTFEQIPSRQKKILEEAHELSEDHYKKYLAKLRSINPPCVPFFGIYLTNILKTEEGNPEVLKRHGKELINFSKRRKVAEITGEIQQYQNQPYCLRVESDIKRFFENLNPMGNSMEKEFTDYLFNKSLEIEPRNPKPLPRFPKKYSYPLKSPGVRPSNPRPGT
Put plainly: SOS1 SPR binding affinity assay (Biacore 8K). The conditions noted are these: avi-tagged SOS1 catalytic domain immobilized on streptavidin chip; equilibrium 1:1 binding fit; read-out: SOS1 SPR Equilibrium Kd. (SPR reads the build-up and loss of mass on a sensor chip optically.)

For assay [2], the target named is T2, SOS1 nucleotide exchange of wild-type KRAS (SOS1 catalytic domain residues 564-1049; KRAS residue 1-169) (Homo sapiens, UniProt Q07889).
T2 sequence (Q07889 564-1049): T1 sequence (Q07889 564-1049)
Put plainly: Inhibition of SOS1 nucleotide exchange activity of KRAS (TR-FRET). Type of assay: biochemical. The conditions noted are these: SOS1 nucleotide exchange of wild-type KRAS; three replicates; four-parameter logistic fit; read-out: TR-FRET IC50. (In general: TR-FRET usually uses a lanthanide donor and a delayed reading to cut background.)

For assay [3], the system named is SOS1 function in cells: cellular pERK in PC-9 cells (EGFR Ex19Del). Put plainly: pERK potency assay in PC-9 cells (AlphaLISA SureFire Ultra p-ERK1/2). The conditions noted are these: 1 hour incubation. Type of assay: cell-based. The method, then: The purpose of this assay is tomeasure the ability of test compounds to inhibit SOS1 function in cells. SOS1 activates RAS proteins by catalyzing the conversion of RAS-GDP to RAS-GTP in response to receptor tyrosine kinase activation. […] The procedure described below measures the level of cellular pERK in response to test compounds in PC-9 cells (EGFR Ex19Del).
PC-9 cells were grown and maintained using media and procedures recommended by the ATCC. On the day prior to compound addition, cells were plated in 384-well cell culture plates (40 μL/well) and grown overnight in a 37° C., 5% CO2 incubator. Test compounds were prepared in 10, 3-fold dilutions in DMSO, with a top concentration of 10 mM. On the day of the assay, 40 nL of test compound was added to each well of cell culture plate using an Echo550 liquid handler (LabCyte). Concentrations of test compound were tested in duplicate with highest test concentration being 10 μM. After compound addition, cells were incubated for 1 hour at 37° C., 5% CO2. Following incubation, culture medium was removed and cells were washed once with phosphate buffered saline.
Cellular pERK level was determined using the AlphaLISA SureFire Ultra p-ERK1/2 Assay Kit (PerkinElmer). Cells were lysed in 25 μL lysis buffer, with shaking at 600 RPM at room temperature for 15 minutes. Lysate (10 μL) was transferred to a 384-well Opti-plate (PerkinElmer) and 5 μL acceptor mix was added. The plate was centrifuged at 1000 RPM for 1 minute, and incubated in the dark for 2 hours. Following this incubation, 5 μL of donor mix was added, the plate was sealed and centrifuged at 1000 RPM for 1 minute, and the mixture was incubated for 2 hours at room temperature. Signal was read on an Envision plate reader (PerkinElmer) using standard AlphaLISA settings. Analysis of raw data was carried out in Excel (Microsoft) and Prism (GraphPad). Signal was plotted vs. the decadal logarithm of compound concentration, and IC50 was determined by fitting a 4-parameter sigmoidal concentration response model.
Background: Bead proximity is the source of the signal in Alpha formats.

Molecules are shown by their SMILES. pIC50, pKd: −log10 of the molar value.

As a reminder, the pKd is the negative decadic logarithm of the Kd, by convention in mol/L. As a reminder, the pIC50 is −log10 of the IC50, conventionally taken in molar units. In the case of `CO[C@]1(c2cc3c(N[C@H](C)c4cccc(C(F)F)c4F)ncnc3n(C)c2=O)CCN(C(C)=O)C1` [Example 32-19], the pKd in assay [1] is 8.16. For the same compound, the pIC50 in assay [2] is 8.05. `C[C@@H](Nc1ncnc2c1cc(C(=O)N1CC3CCC1CO3)c(=O)n2C)c1cccc(C(F)F)c1F` (stereo partly drawn) [Example 26-18]: the pKd in assay [1] is 6.82. The pIC50 in assay [2] is 7.10.

Turning to `C[C@@H](Nc1ncnc2c1cc(C1(F)CCS(=O)(=O)CC1)c(=O)n2C)c1cccc(C(F)F)c1F` [Example 29, 4-(4-{[(1R)-1-[3-(difluoromethyl)-2-fluorophenyl]ethyl]amino}-8-methyl-7-oxo-7H,8H-pyrido[2,3-d]-pyrimidin-6-yl)-4-fluoro-1λ^6-thiane-1,1-dione], the pKd in assay [1] was 7.44. Further, the pIC50 in assay [2] was 7.30.

As for `C[C@@H](Nc1ncnc2c1cc(C1=CCOCC1)c(=O)n2C)c1cccc(C(F)(F)F)c1` [Example 5, (R)-6-(3,6-dihydro-2H-pyran-4-yl)-8-methyl-4-((1-(3-(trifluoromethyl)phenyl)ethyl)amino)pyrido[2,3-d]pyrimidin-7(8H)-one], the pIC50 in assay [2] was 6.95. For `C[C@@H](Nc1ncnc2c1cc(C1CC3(C1)CS(=O)(=O)C3)c(=O)n2C)c1cccc(C(F)F)c1F` [Example 33, 6-(4-{[(1R)-1-[3-(difluoromethyl)-2-fluorophenyl]ethyl]amino}-8-methyl-7-oxo-7H,8H-pyrido[2,3-d]pyrimi-din-6-yl)-2λ^6-thiaspiro[3.3]heptane-2,2-dione], the pKd in assay [1] is 7.48. In addition, in assay [2], the pIC50 was 7.53. On to `C[C@@H](Nc1ncnc2c1cc(N1CCOCC1)c(=O)n2C1CC1)c1cccc(C(F)(F)F)c1` [Example 11, 8-cyclopropyl-6-(morpholin-4-yl)-4-{[(1R)-1-[3-(trifluoromethyl)phenyl]ethyl]amino}-7H,8H-pyrido[2,3-d]pyrimidin-7-one], for which the pIC50 was 6.53 in assay [3] (Homo sapiens, PC-9, 1 h) and 7.48 in assay [2]. The like results for `Cc1nc(N[C@H](C)c2cccc(C(F)(F)F)c2)c2cc(N3CCOCC3)c(=O)n(C)c2n1` [Example 10, 2,8-dimethyl-6-(morpolin-4-yl)-4-[[(1R)-1-[3-(trifluoromethyl)phenyl]ethyl]amino]-7H,8H-pyrido[2,3-d]pyrimidin-7-one] were, in that order, 6.10 and 6.75. Turning to `C[C@@H](Nc1ncnc2c1cc(C1=CCS(=N)(=O)CC1)c(=O)n2C)c1cccc(C(F)F)c1F` (stereo partly drawn) [Example 23, 4-(((R)-1-(3-(difluoromethyl)-2-fluorophenyl)ethyl)amino)-6-(1-imino-1-oxido-1,2,3,6-tetrahydro-1λ^6-thiopyran-4-yl)-8-methylpyrido[2,3-d]pyrimidin-7(8H)-one], the pKd in assay [1] is 7.70. Further, in assay [2], the pIC50 is 7.68. The like results for `Cc1nc(N[C@H](C)c2cc(N)cc(C(F)(F)F)c2)c2cc(C3=CCOCC3)c(=O)n(C)c2n1` [Example 7, (R)-4-((1-(3-amino-5-(trifluoromethyl)phenyl)ethyl)amino)-6-(3,6-dihydro-2H-pyran-4-yl)-2,8-dimethylpyrido[2,3-d]pyrimidin-7(8H)-one] were, in that order, 6.93 and 6.81. Regarding `C[C@@H](Nc1ncnc2c1cc(C(=O)N1CC3CCC(C1)O3)c(=O)n2C)c1cccc(C(F)F)c1F` [Example 26-19], in assay [1], the pKd is 6.83. For the same compound, the pIC50 in assay [2] was 7.18.

With `Cc1nc(N[C@H](C)c2cccc(C(F)(F)CO)c2)c2cc(C3=CCOCC3)c(=O)n(C)c2n1` [Example 3, (R)-4-((1-(3-(1,1-difluoro-2-hydroxyethyl)phenyl)ethyl)amino)-6-(3,6-dihydro-2H-pyran-4-yl)-2,8-dimethylpyrido[2,3-d]pyrimidin-7(8H)-one], the pKd in assay [1] is 7.66. In addition, the pIC50 in assay [2] is 7.46.

For the compound `Cc1nc(N[C@H](C)c2cccc(C(F)F)c2F)c2cc(CN3CCOCC3)c(=O)n(C)c2n1` [Example 27, 4-{[(1R)-1-[3-(difluoromethyl)-2-fluorophenyl]ethyl]amino}-2,8-dimethyl-6-[(morpholin-4-yl)meth-yl]-7H,8H-pyrido[2,3-d]pyrimidin-7-one], the negative-log Kd (pKd) in assay [1] was 6.26. For the same compound, the pIC50 in assay [2] is 6.72. Take `CN=S1(=O)CC=C(c2cc3c(N[C@H](C)c4cccc(C(F)F)c4F)ncnc3n(C)c2=O)CC1` (stereo partly drawn) [Example 24, 4-(((R)-1-(3-(difluoromethyl)-2-fluorophenyl)ethyl)amino)-8-methyl-6-(1-(methylimino)-1-oxido-1,2,3,6-tetrahydro-1λ^6-thiopyran-4-yl)pyrido[2,3-d]pyrimidin-7(8H)-one]: the pIC50 in assay [2] is 7.87.

For the compound `C[C@@H](Nc1ncnc2c1cc(C1=CC[S+]([O-])CC1)c(=O)n2C)c1cccc(C(F)F)c1F` (stereo partly drawn) [Example 22, 4-(((R)-1-(3-(difluoromethyl)-2-fluorophenyl)ethyl)amino)-8-methyl-6-(1-oxido-3,6-dihydro-2H-thiopyran-4-yl)pyrido[2,3-d]pyrimidin-7(8H)-one], the pKd in assay [1] was 7.47. Further, in assay [2], the pIC50 is 6.53.

`COC1(c2cc3c(N[C@H](C)c4cccc(C(F)F)c4F)ncnc3n(C)c2=O)CCS(=O)(=O)CC1` [Example 32, 4-(4-{[(1R)-1-[3-(difluoro-methyl)-2-fluorophenyl]ethyl]amino}-8-methyl-7-oxo-7H,8H-pyrido[2,3-d]pyrimidin-6-yl)-4-methoxy-1λ^6-thiane-1,1-dione]: in assay [1], the pKd is 7.40.

Regarding `Cc1nc(N[C@H](C)c2cc(N)cc(C(F)(F)F)c2)c2cc(C3CCNCC3)c(=O)[nH]c2n1` [Example 8, (R)-4-((1-(3-amino-5-(trifluoromethyl)phenyl)ethyl)amino)-2-methyl-6-(piperidin-4-yl)pyrido[2,3-d]pyrimidin-7(8H)-one], in assay [2], the pIC50 is 7.65. In assay [3], `COc1ncccc1-c1cc2c(N[C@H](C)c3cccc(C(F)F)c3F)ncnc2n(C)c1=O` [Example 21-7] had a pIC50 of 6.82. Still for that read-out and setting: as for `Cc1nc(N[C@H](C)c2cccc(C(F)F)c2F)c2cc(C3(O)CCN(C)CC3)c(=O)n(C)c2n1` [Example 28-2], the figure is 6.24; as for `COC1(c2cc3c(N[C@H](C)c4cccc(C(F)F)c4F)ncnc3n(C)c2=O)CCS(=O)(=O)C1` (stereo partly drawn) [Example 32-73], 7.24. On the same count and under the same terms, as for `Cc1nc(N[C@H](C)c2cccc(C(F)F)c2F)c2cc(-c3ccnnc3)c(=O)n(C)c2n1` [Example 21-3], the figure is 6.73; as for `COC1(c2cc3c(N[C@H](C)c4cccc(C(F)F)c4C)ncnc3n(C)c2=O)CCS(=O)(=O)CC1` [Example 32-86], 7.08; as for `C[C@@H](Nc1ncnc2c1cc(C1CCN(CC(F)F)CC1)c(=O)n2C)c1cccc(C(F)F)c1F` [Example 8-13], 6.44.

`C[C@@H](Nc1ncnc2c1cc(C1=CCS(=O)(=O)CC1)c(=O)n2CC#N)c1cccc(C(F)F)c1F` [Example 11-3] had a pIC50 in assay [3] of 7.09. `C[C@@H](Nc1ncnc2c1cc(C1(N)CCC3(CC1)CS(=O)(=O)C3)c(=O)n2C)c1cccc(C(F)F)c1F` [Example 31-5]: in assay [3], the pIC50 was 7.57. Still for that read-out and setting: as for `Cc1nc(N[C@H](C)c2cccc(C(F)F)c2F)c2cc(C3CCN(CC(F)(F)F)CC3)c(=O)n(C)c2n1` [Example 8-17], the figure is 6.27; as for `CC(=O)N1CCC(OC2CC2)(c2cc3c(N[C@H](C)c4cccc(C(F)F)c4F)ncnc3n(C)c2=O)C1` (stereo partly drawn) [Example 32-70], 6.46.

Turning to `C[C@@H](Nc1ncnc2c1cc(Sc1ccccc1)c(=O)n2C)c1cccc(C(F)F)c1F` [Example 30, 4-{[(1R)-1-[3-(difluoromethyl)-2-fluorophenyl]ethyl]amino}-8-methyl-6-(phenylsulfanyl)-7H,8H-pyrido[2,3-d]pyrimidin-7-one], the pIC50 in assay [2] is 4.96.

The values above are taken from patent publication US20210139517A1, “BICYCLIC HETEROARYL COMPOUNDS AND USES THEREOF” (Revolution Medicines, Inc., priority 2019, published 2021).
